Target: T1, Regulator of G-protein signaling 19 (Homo sapiens, UniProt P49795)
T1 sequence (P49795 whole entry): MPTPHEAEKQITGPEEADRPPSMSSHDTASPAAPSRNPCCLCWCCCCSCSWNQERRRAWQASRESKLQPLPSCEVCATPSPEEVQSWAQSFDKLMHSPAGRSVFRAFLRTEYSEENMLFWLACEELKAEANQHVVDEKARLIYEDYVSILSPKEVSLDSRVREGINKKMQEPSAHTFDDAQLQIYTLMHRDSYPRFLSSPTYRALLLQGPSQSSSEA
Assay: RGS19-Galphao binding modulators, analog potency, SAR follow-up, biochemical, SAR compounds, multiplexed bead flow cytometry (AID 2311)

NS(=O)(=O)c1ccc(N=NCc2ccc(O)c(O)c2O)c([N+](=O)[O-])c1 [4-[[(E)-(2,3-dihydroxy-4-oxo-1-cyclohexa-2,5-dienylidene)methyl]hydrazo]-3-nitrobenzenesulfonamide]
Ki: 100 nM
